Data published in patent US11040028B2, “Penicinotam derivative, preparation method and use thereof” (OCEAN UNIVERSITY OF CHINA, priority 2017, dated 2021).

Tests used:
Assay type in all cases: cell-based
[1] = system: BHK-21 cells; experiment: Anti-fibrosis activity test: inhibition of BHK-21 cell proliferation (CCK-8); conditions: Mesocricetus auratus, BHK-21, 48 h
Summary of the method: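 Read-out: CCK-8 absorbance at 450 nm after 2 h, giving proliferation inhibition (1−Ai/Ao)×100% versus blank control, from which IC50 was derived. Cells had been treated with compounds for 48 h after 24 h adherence at 37° C. Pirfenidone served as positive control.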

[2] = system: human lung fibroblasts HFL1; experiment: Anti-fibrosis activity test: inhibition of proliferation of human lung fibroblasts HFL1 (CCK-8); conditions: Homo sapiens, HFL1, 48 h
Summary of the method: (§1)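 Exponentially growing cells, 2×10^4 cells/mL, attached 24 h. Dosed 48 h across concentrations (n=3). CCK-8 2 h → A450; IR vs blank; IC50.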

[3] = system: human hepatic stellate cells LX-2; experiment: Anti-fibrosis activity test: inhibition of proliferation of human hepatic stellate cells LX-2 (CCK-8); conditions: Homo sapiens, 48 h
Summary of the method: as §1

[4] = system: human fibrosarcoma cells HT-1080; experiment: Anti-fibrosis activity test: inhibition of proliferation of human fibrosarcoma cells HT-1080 (CCK-8); conditions: Homo sapiens, HT-1080, 48 h
Summary of the method: as §1

[5] = system: human dermal fibroblasts CCC-ESF-1; experiment: Anti-fibrosis activity test: inhibition of proliferation of human dermal fibroblasts CCC-ESF-1 (CCK-8); conditions: Fibroblast
Summary of the method: as §1

[6] = system: human embryonic lung fibroblast IMR-90; experiment: Anti-fibrosis activity test: inhibition of proliferation of human embryonic lung fibroblast IMR-90 (CCK-8)
Summary of the method: as §1

[7] = system: cardiac fibroblast RAT-iCell-C002; experiment: Anti-fibrosis activity test: inhibition of proliferation of cardiac fibroblast RAT-iCell-C002 (CCK-8); conditions: Cardiac fibroblast, 48 h
Summary of the method: as §1

[8] = system: NF-κB; experiment: Immunological activity test: inhibition of NF-κB activity; conditions: initial concentration of 30 μM; a/b isomers given as first/second symbol; read-out: IC50 (μM), inhibitory activity against NF-κB
Summary of the method: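 IC50 values come from further analysis of the data after an initial test at a single 30 μM concentration. Parthenolide served as the reference inhibitor.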

[9] = system: mouse macrophages (RAW264.7); experiment: Lipopolysaccharide-induced NO secretion in macrophages (Griess); conditions: Mus musculus, RAW264.7, 24 h, RAW264.7, LPS 1 μg/ml, a/b isomers given as first/second symbol, read-out: IC50 (μM), inhibition of lipopolysaccharide-induced NO secretion in macrophages
Summary of the method: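 RAW264.7 cells in DMEM with 10% FBS were treated with test compounds at several concentrations, then stimulated with LPS (1 μg/ml) for 24 hours. Nitrite in the supernatant was measured by Griess reaction at 548 nm, and percent inhibition was calculated against blank-medium controls.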

[10] = CCK-8, 48 hours after administration
[11] = human lung fibroblasts HFL1, CCK-8, 48 hours
[12] = human hepatic stellate cells LX-2, CCK-8, 48 hours
[13] = human fibrosarcoma cells HT-1080, CCK-8, 48 hours
[14] = human dermal fibroblasts CCC-ESF-1, CCK-8, 48 hours
[15] = human embryonic lung fibroblast IMR-90, CCK-8, 48 hours
[16] = cardiac fibroblast RAT-iCell-C002, CCK-8, 48 hours
[17] = Homo sapiens, CCC-ESF-1 cells, 48 h, CCK-8
[18] = Homo sapiens, IMR-90 cells, 48 h, CCK-8

Structure (SMILES)	IC50 [1, 10] [mM]	IC50 [2, 11] [mM]	IC50 [3, 12] [mM]	IC50 [4, 13] [mM]	IC50 [5, 14] [mM]	IC50 [6, 15] [mM]	IC50 [7, 16] [mM]	IC50 [8] [µM]	IC50 [9] [µM]	IC50 ([1]; 48 h, CCK-8) [mM]	IC50 ([2]; HFL1 cells, 48 h, CCK-8) [mM]	IC50 ([3]; LX-2, 48 h, LX-2 cells, CCK-8) [mM]	IC50 ([4]; HT-1080 cells, 48 h, CCK-8) [mM]	IC50 [5, 17] [mM]	IC50 [6, 18] [mM]	IC50 ([7]; RAT-iCell-C002 cells, CCK-8) [mM]
CN(C)CCn1c2c(c(=O)c3ccccc31)C(=O)n1cccc1-2 [Compound 12a, 4-(2-(Dimethylamino)ethyl)-9H-pyrrolizino[1,2-b]quinoline-9,10(4H)-dione]	0.05 to 5	0.05 to 5	0.05 to 5	0.05 to 5	0.05 to 5	0.05 to 5	0.05 to 5	1 to 10	1 to 10	–	–	–	–	–	–	–
O=C1c2c(nc3ccccc3c2OCc2cccc(F)c2)-c2cccn21 [Compound 595b, 9-((3-fluorobenzyl)oxy)-10H-pyrrolizino[1,2-b]quinolin-10-one]	0.05 to 5	0.05 to 5	0.05 to 5	0.05 to 5	0.05 to 5	0.05 to 5	0.05 to 5	1 to 10	0.1 to 1	–	–	–	–	–	–	–
O=C1c2c(n(Cc3ccc(C(F)(F)F)cc3)c3ccccc3c2=O)-c2cccn21 [Compound 591a, 4-(4-(Trifluoromethyl)benzyl)-9H-pyrrolizino[1,2-b]quinoline-9,10(4H)-dione]	0.05 to 5	0.05 to 5	0.05 to 5	0.05 to 5	0.05 to 5	0.05 to 5	0.05 to 5	1 to 10	0.1 to 1	–	–	–	–	–	–	–
CC(C)(C)Cn1c2c(c(=O)c3ccccc31)C(=O)n1cccc1-2 [Compound 656a, 4-Neopentyl-9H-pyrrolizino[1,2-b]quinoline-9,10(4H)-dione]	0.05 to 5	0.05 to 5	0.05 to 5	0.05 to 5	0.05 to 5	0.05 to 5	0.05 to 5	1 to 10	1 to 10	–	–	–	–	–	–	–
COc1c2c(nc3ccc(F)cc13)-c1cccn1C2=O [Compound 157b, 7-fluoro-9-methoxy-10H-pyrrolizino[1,2-b]quinolin-10-one]	0.05 to 5	0.05 to 5	0.05 to 5	0.05 to 5	0.05 to 5	0.05 to 5	0.05 to 5	0.1 to 1	1 to 10	–	–	–	–	–	–	–
CC(C)(O)COc1c2c(nc3ccccc13)-c1cccn1C2=O [Compound 660b, 9-(2-hydroxy-2-methylpropoxy)-10H-pyrrolizino[1,2-b]quinolin-10-one]	0.05 to 5	0.05 to 5	0.05 to 5	0.05 to 5	0.05 to 5	0.05 to 5	0.05 to 5	1 to 10	1 to 10	–	–	–	–	–	–	–
Cc1cc2n(c1)C(=O)c1[nH]c3ccccc3c(=O)c1-2 [Compound 798a, 2-Methyl-5H-pyrrolizino[2,1-b]quinoline-5,11(6H)-dione]	–	–	–	–	–	–	–	1 to 10	1 to 10	< 0.05	0.05 to 5	0.05 to 5	0.05 to 5	0.05 to 5	0.05 to 5	0.05 to 5
O=C1c2c(nc3ccccc3c2OCCN2CCCCC2)-c2cccn21 [Compound 665b, 9-(2-(piperidin-1-yl)ethoxy)-10H-pyrrolizino[1,2-b]quinolin-10-one]	–	–	–	–	–	–	–	1 to 10	1 to 10	0.05 to 5	0.05 to 5	0.05 to 5	0.05 to 5	0.05 to 5	0.05 to 5	0.05 to 5
N#Cc1ccccc1Cn1c2c(c(=O)c3ccccc31)C(=O)n1cccc1-2 [Compound 577a, 2-((9,10-Dioxo-9H-pyrrolizino[1,2-b]quinolin-4(10H)-yl)methyl)benzonitrile]	0.05 to 5	0.05 to 5	< 0.05	0.05 to 5	0.05 to 5	0.05 to 5	0.05 to 5	1 to 10	1 to 10	–	–	–	–	–	–	–
N#Cc1ccc2nc3c(c(O)c2c1)C(=O)n1cccc1-3 [Compound 222b, 9-hydroxy-10-oxo-10H-pyrrolizino[1,2-b]quinoline-7-carbonitrile]	0.05 to 5	0.05 to 5	0.05 to 5	0.05 to 5	0.05 to 5	0.05 to 5	0.05 to 5	1 to 10	1 to 10	–	–	–	–	–	–	–
